Data on 14 compounds can be found in patent publication EP0732399A2 (CEPHALON, INC., priority 1990, dated 1991).

pKi: −log10 of the molar value. Values joined by “and” are separate entries in the source; they are usually repeats but may differ in a detail not shown here. Equal values may be shown once. “Also recorded” adds a separate entry of the source. Read-outs that look alike come from different tables or passages of the source. Square brackets hold non-standard residues; d marks the D form. Peptide text beside a SMILES is read from it. * marks the point of attachment. Sta = CC(C)C[C@H](N)[C@@H](O)CC(=O)O; Isovaleryl = CC(C)CC(=O)*; MeOSuc = COC(=O)CCC(=O)*; CH2Cl = ClC*

Series [1] has as its system chymase. As to the kind of experiment: Purified chymase. As to conditions: rat, room temperature, up to 48 hrs.
In series [2] the target is T1, chymase (Rattus norvegicus, UniProt P09650).
T1 construct: Starting from 18g rat brain, approximately 10µg homogeneous chymase was obtained; from tissue; host or cells: rat forebrain (5-7 day old pups)
T1 sequence (P09650 21-260): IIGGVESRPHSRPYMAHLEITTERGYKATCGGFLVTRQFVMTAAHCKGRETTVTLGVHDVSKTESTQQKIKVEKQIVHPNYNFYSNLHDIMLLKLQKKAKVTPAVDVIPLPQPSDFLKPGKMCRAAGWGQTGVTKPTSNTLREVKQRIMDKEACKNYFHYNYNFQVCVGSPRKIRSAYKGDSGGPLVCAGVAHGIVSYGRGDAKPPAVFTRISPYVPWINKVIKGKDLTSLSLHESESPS
Briefly: Inhibition of purified brain chymase (pNa substrate hydrolysis). It is filed as biochemical. The procedure:
(§1) During the various protease purification steps, protease activity of all fractions was measured using chromogenic or fluorogenic peptide analogs as substrates. Other methods are available, known to those skilled in the art. One specific example of an activity measurement is described here. Protease activity assays were performed in 96 well microtiter plates, in a total volume of 0.2 mls. Substrates were prepared as 10-20X concentrated stock solutions in DMSO. Therefore, each reaction contained 5-10% DMSO. Reactions were initiated by addition of protease-containing samples to wells already containing substrates, and were maintained at 37°C. Control wells received either protease without substrate, or substrate without protease. The release of reporter moities by proteolytic cleavage was followed as a function of time by either spectrophotometry (e.g., for pNa substrates, change in absorbance with time at 405 nm) or fluorimetry (e.g., for AMC substrates, change in fluorescence with time using excitation at 390 nm and emission at 460 nm). Maximum velocity of reactions was determined while substrate hydrolysis increased linearly as a function of time.

Series [3] has as its system human brain multicatalytic protease. It is filed as biochemical. The following applies: qualitative, no concentration stated. The procedure:
as §1
Human cerebral cortex (courtesy National Neurological Research Bank, Los Angeles, CA.) was obtained at autopsy and stored at -70°C until use. All procedures were conducted at 4 °C unless noted otherwise. […] Triton X-100 was added to 0.5%, the homogenate was stirred for 1 hr., then centrifuged at 40,000 x g for 1 hr. The supernatant, containing the multicatalytic protease, was dialyzed against 20 mM Tris-HCl (pH 8.0),1% glycerol. The following day, the dialysate was loaded on a column (150 ml bed volume) of DEAE-Sepharose Fast Flow (Pharmacia, Piscataway, N.J.) equilibrated in the dialysis buffer. Unbound material was removed with ∼300 mls dialysis buffer, then bound material was eluted with a linear NaCl gradient from 0 mM to 400 mM (1.5 liters total). Fractions of 15 ml were collected and assayed for multicatalytic protease activity (see below).

Series [4] in a line: high salt extract preparation (1 M MgCl2) of human brain samples.
For series [5], the system named is chymase. Briefly: human brain chymase purified from human cerebral cortex. As to conditions: 37°C.
Series [6] relates to multicatalytic protease. As to the kind of experiment: multicatalytic protease purified from human brain. The following applies: 37°C.
Series [7] deals with chymotrypsin. As to the kind of experiment: chymotrypsin (Fig. 6 panel B). As to conditions: 37°C.
Series [8] has as its system cathepsin G. Briefly: cathepsin G (Fig. 6 panel C). The following applies: 37°C.
Series [9] concerns chymase. As to the kind of experiment: purified rat brain chymase. The following applies: 37°C.
For series [10], the system named is chymotrypsin. Briefly: chymotrypsin. As to conditions: 37°C.
Series [11] deals with cathepsin G. Briefly: cathepsin G. As to conditions: 37°C.
Series [12] concerns the target T2, multicatalytic protease (Homo sapiens, UniProt P28074).
T2 construct: Human cerebral cortex (courtesy National Neurological Research Bank, Los Angeles, CA.) was obtained at autopsy; from tissue; host or cells: human cerebral cortex, post mortem
As to the kind of experiment: Substrate cleavage by multicatalytic protease. It is filed as biochemical. How it is done:
as §1
Human cerebral cortex (courtesy National Neurological Research Bank, Los Angeles, CA.) was obtained at autopsy and stored at -70°C until use. All procedures were conducted at 4 °C unless noted otherwise. […]

Series [13] concerns chymotrypsin. As to the kind of experiment: Substrate cleavage by chymotrypsin. It is filed as biochemical. The procedure: as §1
(§2) Contrary to expectation, not all chymotrypsin-like proteases were able to cleave MeOSuc-Glu-Val-Lys-Met-pNa (Figure 6; EVKM using the one letter amino acid code). […]

For series [14], the target named is T3, cathepsin G (Homo sapiens, UniProt P08311).
T3 sequence (P08311 21-255): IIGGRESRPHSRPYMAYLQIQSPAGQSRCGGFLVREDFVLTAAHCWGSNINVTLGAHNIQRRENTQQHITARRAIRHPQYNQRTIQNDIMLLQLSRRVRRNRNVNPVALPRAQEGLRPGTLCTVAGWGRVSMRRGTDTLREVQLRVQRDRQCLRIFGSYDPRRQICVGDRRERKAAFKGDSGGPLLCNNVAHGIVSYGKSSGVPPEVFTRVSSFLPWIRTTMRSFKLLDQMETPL
As to the kind of experiment: Substrate cleavage by cathepsin G. It is filed as biochemical. How it is done: as §1, §2

For series [15], the target named is T1, chymase. Briefly: Substrate cleavage by brain chymase. It is filed as biochemical. How it is done: as §1
In a further series the target is T4, human brain chymase (Homo sapiens, UniProt P23946).
T4 sequence (P23946 22-247): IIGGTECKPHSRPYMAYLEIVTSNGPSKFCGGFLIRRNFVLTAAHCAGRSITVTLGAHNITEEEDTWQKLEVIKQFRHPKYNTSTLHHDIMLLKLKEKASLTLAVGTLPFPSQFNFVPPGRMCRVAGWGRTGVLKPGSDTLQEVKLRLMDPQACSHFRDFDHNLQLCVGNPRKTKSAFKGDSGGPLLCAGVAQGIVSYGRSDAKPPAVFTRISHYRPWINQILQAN

In the case of “Glu-Val-Lys-Met-Asp-Ala-Glu-Phe-Arg-His-Asp-Ser-Gly-Tyr-Glu-Val-His-His-Gln”, the cleaved bond result in the series with chymase [1] was “Met596-Asp597, 45 minutes”. For orientation: pKi means the negative decadic logarithm of the Ki, by convention in mol/L. With `COC(=O)CCC(=O)N[C@@H](CCC(=O)O)C(=O)N[C@H](C(=O)N[C@@H](CCCCN)C(=O)N[C@@H](Cc1ccccc1)C(=O)CCl)C(C)C` (MeOSuc-EVKF-CH2Cl), the negative-log Ki (pKi) at chymase [2] (Ki) is > 7.70. Consider `CC(C)C[C@H](NC(=O)[C@@H](NC(=O)N[C@@H](Cc1ccccc1)C(=O)O)[C@@H]1CCN=C(N)N1)C(=O)N[C@H](C=O)Cc1ccccc1` [chymostatin], for which the “inhibition of multicatalytic protease activity” value in series [3] was “inhibition”. Same read-out and setting: with `CC(=O)N[C@@H](CC(C)C)C(=O)N[C@@H](CC(C)C)C(=O)N[C@H](C=O)CCCNC(=N)N` [leupeptin] the entry was “not”. On the same count and under the same terms, next, `O=S(=O)(F)Cc1ccccc1` [phenylmethylsulfonylfluoride]: “not”. Consider MeOSuc-Ala-Ala-Pro-Phe-pNa, for which, in [4], the cleaved bond result is “Phe-pNa”. For `c1cnc2c(c1)ccc1cccnc12` [o-phenanthroline], in series [3], the “inhibition of multicatalytic protease activity” value is given as “not”. For `COC(=O)CCC(=O)N[C@@H](CCC(=O)O)C(=O)N[C@H](C(=O)N[C@@H](CCCCN)C(=O)N[C@H](C=O)Cc1ccccc1)C(C)C` [MeOSuc-Glu-Val-Lys-Phe-al, MeOSuc-Glu-Val-Lys-Phenylalaninal] (MeOSuc-EVKF-aldehyde), the negative-log Ki (pKi) at chymase [2] (read-out: Ki) is > 7.70 and 7.82. MeOSuc-Glu-Val-Lys-Met-pNa: the cleaved bond result in the series with chymase [5], in the series on multicatalytic protease [6] and in the series on chymase [9] was “Met-pNa” throughout. Also, the not cleaved entry with chymotrypsin [7] and in the series with cathepsin G [8] was “essentially without effect” throughout. On to MeOSuc-Ala-Ala-Pro-Met-pNa, for which the cleaved bond result in the series with chymotrypsin [10], with cathepsin G [11] and with chymase [9] was “Met-pNa” throughout. Turning to `CC(C)CC(=O)N[C@H](C(=O)N[C@H](C(=O)N[C@@H](CC(C)C)[C@@H](O)CC(=O)N[C@@H](C)C(=O)N[C@@H](CC(C)C)[C@@H](O)CC(=O)O)C(C)C)C(C)C` [pepstatin] (Isovaleryl-VV[Sta]A[Sta]-OH), the “inhibition of multicatalytic protease activity” value in [3] is listed as “not”. On to Suc-Ala-Ala-Pro-Phe-pNa, for which the cleaved bond entry with chymase [5] and with chymase [9] was “Phe-pNa” each time. As to MeOSuc-Glu-Val-Lys-Phe-pNa, the cleaved bond result in the series with chymase [9] is listed as “Phe-pNa”. Turning to “methoxysuccinyl-glutamyl-valyl-lysyl-methionine-p-nitroanili de [MeOSuc-Glu-Val-Lys-Met-pNa]”, the “substrate cleavage by multicatalytic protease” value on multicatalytic protease [12] was “readily degraded; also recorded: unusual ability to cleave”. For the same compound, the “substrate cleavage by chymotrypsin” value with chymotrypsin [13] was “essentially without effect”. In addition, on cathepsin G [14], the “substrate cleavage by cathepsin G” value is listed as “essentially without effect”. Further, the “substrate cleavage by chymase” value at chymase [15] is recorded as “readily degraded”. Besides, the “substrate hydrolysis by human brain chymase” value on human brain chymase was “hydrolyzed”.
